Laboratory results as given in patent US20240384268A1, “Oligonucleotides” (Hudson Institute of Medical Research, priority 2021, published 2024).
l = locked nucleic acid (LNA); d = 2'-deoxy (DNA)

What was measured:
STING = target: T1, STING (Homo sapiens, UniProt Q86WV6); test: STING agonist (GSK, DMXAA)-driven IP-10 in MG-63 cells and immortalised mouse BMDMs; type: cell-based; conditions: C2-Mut1 500 nM 6 h (GSK 100 nM, DMXAA 50 μg/ml); MOE/LNA ASOs 1 mM as printed (GSK, MG-63)
T1 construct: host or cells: MG-63 (human osteosarcoma)
T1 sequence (Q86WV6 whole entry): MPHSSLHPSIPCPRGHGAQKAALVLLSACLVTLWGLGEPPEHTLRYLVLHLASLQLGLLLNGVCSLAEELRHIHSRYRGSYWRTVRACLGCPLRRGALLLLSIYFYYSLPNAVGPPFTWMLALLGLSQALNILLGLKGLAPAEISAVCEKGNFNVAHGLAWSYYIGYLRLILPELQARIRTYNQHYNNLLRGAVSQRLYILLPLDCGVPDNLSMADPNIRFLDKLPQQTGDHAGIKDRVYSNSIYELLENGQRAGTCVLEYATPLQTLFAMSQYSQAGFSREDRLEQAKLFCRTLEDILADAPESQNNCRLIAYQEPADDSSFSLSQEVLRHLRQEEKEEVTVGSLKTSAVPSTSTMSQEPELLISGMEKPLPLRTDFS

cGAS [1] = target: T2, cGAS (Homo sapiens, UniProt Q8N884); test: ISD70-driven IP-10 production in MG-63 cells; type: cell-based; design: endogenous in cells
T2 sequence (Q8N884 whole entry): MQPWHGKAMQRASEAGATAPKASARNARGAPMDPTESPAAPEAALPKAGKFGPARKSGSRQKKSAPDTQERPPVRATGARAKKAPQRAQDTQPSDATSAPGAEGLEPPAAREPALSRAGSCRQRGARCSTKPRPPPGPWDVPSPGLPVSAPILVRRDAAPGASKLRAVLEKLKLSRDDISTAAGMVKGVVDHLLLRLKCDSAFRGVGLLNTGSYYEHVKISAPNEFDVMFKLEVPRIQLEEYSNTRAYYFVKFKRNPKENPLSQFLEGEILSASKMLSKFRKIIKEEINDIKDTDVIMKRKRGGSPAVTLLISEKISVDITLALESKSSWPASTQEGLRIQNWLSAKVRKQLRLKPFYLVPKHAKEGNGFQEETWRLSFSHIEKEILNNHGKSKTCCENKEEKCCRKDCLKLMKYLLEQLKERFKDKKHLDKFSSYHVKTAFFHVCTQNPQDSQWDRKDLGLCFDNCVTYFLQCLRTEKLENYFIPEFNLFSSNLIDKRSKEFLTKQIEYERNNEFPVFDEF

TLR3 = target: T3, TLR3 (Homo sapiens, UniProt O15455); test: pIC-driven IP-10 in MG-63 cells; type: cell-based; design: host or cells: MG-63 (human osteosarcoma); conditions: 1 mM ASO as printed, single preliminary experiment
T3 sequence (O15455 24-904): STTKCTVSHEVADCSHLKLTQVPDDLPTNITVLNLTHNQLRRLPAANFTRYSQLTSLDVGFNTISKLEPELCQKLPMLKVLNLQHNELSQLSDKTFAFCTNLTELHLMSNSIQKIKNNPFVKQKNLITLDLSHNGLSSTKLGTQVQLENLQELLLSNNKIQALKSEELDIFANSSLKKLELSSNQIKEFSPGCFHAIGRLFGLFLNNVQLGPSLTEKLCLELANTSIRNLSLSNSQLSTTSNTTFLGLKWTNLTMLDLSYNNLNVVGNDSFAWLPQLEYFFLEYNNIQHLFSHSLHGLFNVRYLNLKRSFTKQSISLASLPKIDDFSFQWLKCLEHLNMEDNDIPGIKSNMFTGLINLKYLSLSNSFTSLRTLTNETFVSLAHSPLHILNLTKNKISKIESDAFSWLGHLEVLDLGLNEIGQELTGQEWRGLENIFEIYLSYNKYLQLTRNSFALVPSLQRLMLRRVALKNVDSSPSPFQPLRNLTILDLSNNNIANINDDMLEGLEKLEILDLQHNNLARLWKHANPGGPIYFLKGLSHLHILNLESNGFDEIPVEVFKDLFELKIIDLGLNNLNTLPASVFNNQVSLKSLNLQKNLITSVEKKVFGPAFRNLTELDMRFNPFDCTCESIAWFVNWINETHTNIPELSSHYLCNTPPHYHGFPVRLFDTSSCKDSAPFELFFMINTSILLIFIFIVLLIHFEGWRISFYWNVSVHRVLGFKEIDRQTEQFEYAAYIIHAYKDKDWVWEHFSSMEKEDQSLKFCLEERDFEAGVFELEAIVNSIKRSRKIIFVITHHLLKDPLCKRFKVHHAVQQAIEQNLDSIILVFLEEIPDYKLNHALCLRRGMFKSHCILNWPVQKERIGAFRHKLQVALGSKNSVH
Procedure: FIG. 25: MG-63 were pre-treated for […] with […] indicated concentrations of ASOs (except for B3 and HPRT847Mut, used at 500 nM), prior to overnight transfection with ISD, stimulation with […] pIC or 100 nM GSK (Valentin et al., 2021). IP10 levels were measured and normalised to GSK only condition, after background correction. Data shown are from a single experiment in biological triplicate (+/−SEM).

cGAS [2] = target: T2, cGAS; test: ISD70-driven IP-10 (and IFN-β) production in THP-1 cells, ELISA; type: cell-based; design: endogenous in cells; host or cells: THP-1 (undifferentiated); conditions: THP-1
cGAS [3] = target: cGAS (Mus musculus, UniProt Q8C6L5); test: ISD-driven IP-10 production in immortalised mouse BMDMs; type: cell-based; design: endogenous in cells; host or cells: immortalised wild-type mouse bone marrow macrophages (iBMDMs); conditions: iBMDMs, 500 nM ASO
Sequence of cGAS (Mus musculus, UniProt Q8C6L5) (Q8C6L5 whole entry): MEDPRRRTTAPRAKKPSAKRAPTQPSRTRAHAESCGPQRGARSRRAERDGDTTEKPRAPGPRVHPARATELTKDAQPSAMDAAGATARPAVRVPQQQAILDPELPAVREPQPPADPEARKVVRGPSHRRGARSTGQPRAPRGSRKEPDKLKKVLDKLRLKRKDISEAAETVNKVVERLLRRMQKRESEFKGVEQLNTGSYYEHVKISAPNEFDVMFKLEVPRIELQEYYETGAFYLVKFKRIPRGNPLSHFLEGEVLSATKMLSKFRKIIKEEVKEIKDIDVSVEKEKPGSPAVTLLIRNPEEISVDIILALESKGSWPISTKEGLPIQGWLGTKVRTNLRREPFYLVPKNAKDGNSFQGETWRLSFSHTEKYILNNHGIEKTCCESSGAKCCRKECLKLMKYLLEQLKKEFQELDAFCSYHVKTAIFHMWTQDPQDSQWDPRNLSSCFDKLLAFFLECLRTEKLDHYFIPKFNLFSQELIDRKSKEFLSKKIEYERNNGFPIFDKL

mouse cGAS = target: T4, mouse cGAS (Mus musculus, UniProt Q8C6L5); test: ISD45-driven ISRE-luciferase in mouse LL171 cells; type: cell-based; conditions: 2′OMe or PS oligos 50-600 nM, ISD45 2.5 μg/ml overnight
T4 construct: endogenous in cells; host or cells: LL171 (mouse L929 cells with ISRE-Luciferase)
T4 sequence (Q8C6L5 whole entry): as above
Procedure: In such examples, inhibition of cGAS activity can be identified by observation of an overall decreased cGAS response of the cell population, or a lower proportion of cells having cGAS-positive activity as compared to positive control condition in which cells are treated with cGAS agonist in the absence of the oligonucleotide (or in the presence of an appropriate control inhibitory agent). In one example, THP-1 or HT-29 cells are transfected with ISD70 and incubated with an oligonucleotide. cGAS activity can then be determined by cytokine (e.g., IP-10 and/or IFNβ) expression (e.g., gene and/or protein expression) and/or secretion levels, such as by ELISA. A similar assay can be performed with LL171 cells transfected with ISD45. […] By way of example, cGAS enzymatic activity may be assessed in vitro using recombinant cGAS and then measuring activity thereof by way of a cGAMP ELISA.
For cGAS stimulations, cells were treated for indicated duration with ASOs, prior to transfection with ISD70 (human cells) or ISD45 (mouse cells) (the ASOs were not washed off prior to ISD transfection unless otherwise indicated). The cGAS ligands ISD45 (Stetson and Medzhitov, 2006) and ISD70 (also known as VACV-70 (Unterholzner et al., 2010)) (Table 1) were resuspended as follows: 5 1d of sense and 5 μl of antisense strands at 10 μg/μl were added to 90 μl PBS under sterile conditions, heated at 75° C. for 30 min, prior to letting cool down at room temperature and aliquoting (stock at 1 μg/1 l). The ISDs were transfected at a concentration of […] at a ratio of 1 μg:1 μl with Lipofectamine 2000 in Opti-MEM (Thermo Fisher Scientific). HEK-TLR3, HEK-TLR7 and […] were treated with indicated concentration of ASOs for 20-50 min, prior to stimulation with poly(I:C) (Invivogen), R848 (Invivogen), Motolimod (MedChemExpress) and the Class B CpG oligonucleotides ODN 2006 (synthesised by IDT and resuspended in RNase-free TE buffer [Table 1]), respectively. The TLR2/1 agonist PAM3CSK4 (Invivogen), the TLR4 agonist lipopolysaccharide (Invivogen), the Class B CpG oligonucleotides ODN 1826 (synthesised by IDT and resuspended in RNase-free TE buffer), the mouse Sting agonist DMXAA (Cayman) and the human STING agonist (compound #3 from (Raanjulu et al., 2018), referred to as GSK herein—kind gift from Cancer Therapeutics CRC, Australia) were used at indicated concentrations. Aspirin (Sigma—A2093) was resuspended in pure medium to 10 mM, filter sterilised and added to the cells at 2 mM final. All ASOs were synthesised by Integrated DNA Technologies (IDT), and resuspended in RNase-free TE buffer, pH 8.0 (Thermo Fisher Scientific). Cell viability was assessed by adding 1× fresh resazurin solution to the wells (10λ solution made up with 7 mg resazurin [Sigma—R7017] dissolved in 3.5 ml PBS, sterile filtered at […]) for 4 h, prior to reading at with a Fluostar OPTIMA (BMG LABTECH) plate-reader (fluorescence: Excitation 535 nm, Emission 590); wells with medium only and 1× resazurin were used as blanks.
Following transfection, the cells were collected from the 6-wells and aliquoted into 96-wells, just before ASO and overnight TLR stimulation (as above described).

HPRT = HPRT mRNA levels in SV40T hTERT fibroblasts, RT-qPCR; type: cell-based, human; conditions: 100 nM ASO transfected overnight
cGAS [4] = target: T2, cGAS; test: IFN-driven gene expression in BJ hTERT SV40T fibroblasts (constitutive cGAS activation), RT-qPCR; conditions: ASO transfected 20-100 nM overnight

Row | inhibition of ISD sensing in MG-63, 2′OMe ASOs (in words) (cGAS [1]; C2-Mut1 500 nM 6 h, or ASO847 series ~30 min, ISD70 overnight) | inhibition of ISD70-driven IP-10 production (in words) (cGAS [2]; 2′OMe or PS oligos, 100-250 nM, pre-treatment as in figure legends, ISD70 2.5 μg/ml) | inhibition of constitutively expressed ISGs (IFIT1, IFIT2, IFI44; in words) (cGAS [4]) | Substance | IP-10 production driven by STING synthetic agonists (in words) (STING) | IP-10 driven by ISD in MG-63, higher dose (in words) (cGAS [1]; 1 mM ASO as printed, single preliminary experiment (FIG. 25)) | IP-10 after ISD in MG-63, MOE and LNA ASOs (in words) (cGAS [1]; indicated concentrations up to 500 nM, ~30 min, ISD overnight (FIG. 24)) | IP-10 driven by TLR3 engagement with polyI:C in MG-63 (in words) (TLR3) | IC50 (cGAS [2]; ~30 min pre-treatment, ISD70 overnight (FIG. 27), read-out: IC50 (IP-10 after ISD70 transfection), MOE and LNA ASOs) [nM] | ISD-induced IP-10 in immortalised mouse BMDMs (in words) (cGAS [3]; ISD overnight) | IP-10 induced by the ASO transfected alone, no ISD (in words) (cGAS [3]; lipofectamine only (Mock)) | inhibition of ISD45-driven ISRE-luciferase (in words) (mouse cGAS) | HPRT mRNA levels (in words) (HPRT)
1 |  |  |  | +C*+G*+C*T*T*T*T*C*T*C*T*C*C*+G*+G*+T (CGCTTTTCTCTCCGGT; sugars from the 5' end l3 d10 l3, all phosphorothioate, methylation of C not given here) [A1-Mut] | not that driven by direct stimulation of STING | only reduced IP-10 driven by ISD | significantly reduced IP-10 levels | only reduced IP-10 driven by ISD | 75 | did not significantly potentiate IP-10 production | induced low level IP-10 |  | 
2 | much better inhibitor of cGAS | much better inhibitor of cGAS | as potent as C2-Mutl | mG*mG*mU* mA*mU*mA* mG*mG*A* C*T*C* C*A*G* A*T*G* mU*mU*mU* mC*mC [HPRT-2OMe-847-Mut1] |  |  |  |  |  |  |  | better inhibitor against mouse cGAS activation | still able to reduce HPRT levels
